Values of other authors in article PMC12181400, “Leveraging viral genome sequences and machine learning models for identification of potentially selective antiviral agents” (Communications Chemistry, 2025).
Structures can show the parent of a compound that is named as a salt. Where two headings read alike, the source gives them in different places.

Columns and labels:
Settings in all cases: cited from earlier work
[1] = test system: cell viability (tox21-ar-mda-kb2-luc-antagonist-p2)
[2] = test system: cell viability (tox21-car-antagonist-p1)
[3] = test system: cell viability (tox21-are-bla-p1)
[4] = test system: cell viability (tox21-ar-mda-kb2-luc-agonist-p3)
[5] = test system: cell viability (tox21-ap1-agonist-p1)
[6] = test system: cell viability (tox21-car-agonist-p1)
[7] = curve rank −9 to 9, 0 = inactive, ref NCATS Tox21 public data browser

CCS(=O)(=O)CCn1c([N+](=O)[O-])cnc1C [Tinidazole]
tox21-ar-mda-kb2-luc-antagonist-p2-viability (curve rank) [1]: 0 | tox21-car-antagonist-p1-viability (curve rank) [2]: 0 | tox21-are-bla-p1-viability (curve rank) [3]: 0 | tox21-ar-mda-kb2-luc-agonist-p3-viability (curve rank) [4]: 0 | tox21-ap1-agonist-p1-viability (curve rank) [5]: 0 | tox21-car-agonist-p1-viability (curve rank) [6]: 0

CCN(CC)CC1CCCCN1CC(=O)N1c2ccccc2C(=O)Nc2cccnc21 (stereo not drawn) [AF-DX 116]
tox21-ar-mda-kb2-luc-antagonist-p2-viability (curve rank) [1]: 0 | tox21-car-antagonist-p1-viability (curve rank) [2]: 0 | tox21-are-bla-p1-viability (curve rank) [3]: 0 | tox21-ar-mda-kb2-luc-agonist-p3-viability (curve rank) [4]: 0 | tox21-ap1-agonist-p1-viability (curve rank) [5]: 0 | tox21-car-agonist-p1-viability (curve rank) [6]: 0

O=C1c2ccccc2S(=O)(=O)N1CCCCN1CCN(c2ncccn2)CC1 [Ipsapirone]
tox21-ar-mda-kb2-luc-antagonist-p2-viability (curve rank) [1]: 0 | tox21-car-antagonist-p1-viability (curve rank) [2]: 0 | tox21-are-bla-p1-viability (curve rank) [3]: 0 | tox21-ar-mda-kb2-luc-agonist-p3-viability (curve rank) [4]: 0 | tox21-ap1-agonist-p1-viability (curve rank) [5]: 0 | tox21-car-agonist-p1-viability (curve rank) [6]: 0

COC(=O)[C@H](c1ccccc1Cl)N1CCc2sccc2C1 [Clopidogrel bisulfate]
tox21-ar-mda-kb2-luc-antagonist-p2-viability (curve rank) [1]: 0 | tox21-car-antagonist-p1-viability (curve rank) [2]: 0 | tox21-are-bla-p1-viability (curve rank) [3]: 0 | tox21-ar-mda-kb2-luc-agonist-p3-viability (curve rank) [4]: 0 | tox21-ap1-agonist-p1-viability (curve rank) [5]: 0 | tox21-car-agonist-p1-viability (curve rank) [6]: 0

COc1cc(C(=O)NCCCCCC(=O)O)cc(OC)c1OC [Capobenic acid]
tox21-ar-mda-kb2-luc-antagonist-p2-viability (curve rank) [1, 7]: 0 | tox21-car-antagonist-p1-viability (curve rank) [2, 7]: 0 | tox21-are-bla-p1-viability (curve rank) [3, 7]: 0 | tox21-ar-mda-kb2-luc-agonist-p3-viability (curve rank) [4, 7]: 0 | tox21-ap1-agonist-p1-viability (curve rank) [5, 7]: 0 | tox21-car-agonist-p1-viability (curve rank) [6, 7]: 0

O=C1NS(=O)(=O)c2ccccc21 [Saccharin]
tox21-ar-mda-kb2-luc-antagonist-p2-viability (curve rank) [1]: 0 | tox21-car-antagonist-p1-viability (curve rank) [2]: 0 | tox21-are-bla-p1-viability (curve rank) [3]: 0 | tox21-ar-mda-kb2-luc-agonist-p3-viability (curve rank) [4]: 0 | tox21-ap1-agonist-p1-viability (curve rank) [5]: 0 | tox21-car-agonist-p1-viability (curve rank) [6]: 0

CC(=O)Nc1ccccc1 [Acetanilide]
tox21-ar-mda-kb2-luc-antagonist-p2-viability (curve rank) [1]: 0 | tox21-car-antagonist-p1-viability (curve rank) [2]: 0 | tox21-are-bla-p1-viability (curve rank) [3]: 0 | tox21-ar-mda-kb2-luc-agonist-p3-viability (curve rank) [4]: 0 | tox21-ap1-agonist-p1-viability (curve rank) [5]: 0 | tox21-car-agonist-p1-viability (curve rank) [6]: 0

CN1C(=O)CC[C@H]1c1cccnc1 [Cotinine]
tox21-ar-mda-kb2-luc-antagonist-p2-viability (curve rank) [1]: 0 | tox21-car-antagonist-p1-viability (curve rank) [2]: 0 | tox21-are-bla-p1-viability (curve rank) [3]: 0 | tox21-ar-mda-kb2-luc-agonist-p3-viability (curve rank) [4]: 0 | tox21-ap1-agonist-p1-viability (curve rank) [5]: 0 | tox21-car-agonist-p1-viability (curve rank) [6]: 0

CC(Cc1ccccc1)(NC(=O)CN)c1ccccc1 (stereo not drawn) [Remacemide hydrochloride]
tox21-ar-mda-kb2-luc-antagonist-p2-viability (curve rank) [1, 7]: 0 | tox21-car-antagonist-p1-viability (curve rank) [2, 7]: 0 | tox21-are-bla-p1-viability (curve rank) [3, 7]: 0 | tox21-ar-mda-kb2-luc-agonist-p3-viability (curve rank) [4, 7]: 0 | tox21-ap1-agonist-p1-viability (curve rank) [5, 7]: 0 | tox21-car-agonist-p1-viability (curve rank) [6, 7]: 0

CCOC(=O)c1ncn2c1CN(C)C(=O)c1cc(F)ccc1-2 [Flumazenil]
tox21-ar-mda-kb2-luc-antagonist-p2-viability (curve rank) [1]: 0 | tox21-car-antagonist-p1-viability (curve rank) [2]: 0 | tox21-are-bla-p1-viability (curve rank) [3]: 0 | tox21-ar-mda-kb2-luc-agonist-p3-viability (curve rank) [4]: 0 | tox21-ap1-agonist-p1-viability (curve rank) [5]: 0 | tox21-car-agonist-p1-viability (curve rank) [6]: 0

CCN[C@H]1CN(CCCOC)S(=O)(=O)c2sc(S(N)(=O)=O)cc21 [Brinzolamide]
tox21-ar-mda-kb2-luc-antagonist-p2-viability (curve rank) [1]: 0 | tox21-car-antagonist-p1-viability (curve rank) [2]: 0 | tox21-are-bla-p1-viability (curve rank) [3]: 0 | tox21-ar-mda-kb2-luc-agonist-p3-viability (curve rank) [4]: 0 | tox21-ap1-agonist-p1-viability (curve rank) [5]: 0 | tox21-car-agonist-p1-viability (curve rank) [6]: 0

CN1C(=O)CC(c2ccccc2)C1=O (stereo not drawn) [Phensuximide]
tox21-ar-mda-kb2-luc-antagonist-p2-viability (curve rank) [1]: 0 | tox21-car-antagonist-p1-viability (curve rank) [2]: 0 | tox21-are-bla-p1-viability (curve rank) [3]: 0 | tox21-ar-mda-kb2-luc-agonist-p3-viability (curve rank) [4]: 0 | tox21-ap1-agonist-p1-viability (curve rank) [5]: 0 | tox21-car-agonist-p1-viability (curve rank) [6]: 0

O=C(CCNNC(=O)c1ccncc1)NCc1ccccc1 [Nialamide]
tox21-ar-mda-kb2-luc-antagonist-p2-viability (curve rank) [1]: 0 | tox21-car-antagonist-p1-viability (curve rank) [2]: 0 | tox21-are-bla-p1-viability (curve rank) [3]: 0 | tox21-ar-mda-kb2-luc-agonist-p3-viability (curve rank) [4]: 0 | tox21-ap1-agonist-p1-viability (curve rank) [5]: 0 | tox21-car-agonist-p1-viability (curve rank) [6]: 0

Cc1cc(CC(=O)[O-])n(C)c1C(=O)c1ccc(Cl)cc1.[Na+] [Sodium zomepirac]
tox21-ar-mda-kb2-luc-antagonist-p2-viability (curve rank) [1, 7]: 0 | tox21-car-antagonist-p1-viability (curve rank) [2, 7]: 0 | tox21-are-bla-p1-viability (curve rank) [3, 7]: 0 | tox21-ar-mda-kb2-luc-agonist-p3-viability (curve rank) [4, 7]: 0 | tox21-ap1-agonist-p1-viability (curve rank) [5, 7]: 0 | tox21-car-agonist-p1-viability (curve rank) [6, 7]: 0

CC(C)(C(=O)c1cccnc1)c1cccnc1 [Metyrapone]
tox21-ar-mda-kb2-luc-antagonist-p2-viability (curve rank) [1]: 0 | tox21-car-antagonist-p1-viability (curve rank) [2]: 0 | tox21-are-bla-p1-viability (curve rank) [3]: 0 | tox21-ar-mda-kb2-luc-agonist-p3-viability (curve rank) [4]: 0 | tox21-ap1-agonist-p1-viability (curve rank) [5]: 0 | tox21-car-agonist-p1-viability (curve rank) [6]: 0

COP(=S)(OC)Oc1ccc(SC)c(C)c1 [Fenthion]
tox21-ar-mda-kb2-luc-antagonist-p2-viability (curve rank) [1, 7]: 0 | tox21-car-antagonist-p1-viability (curve rank) [2, 7]: 0 | tox21-are-bla-p1-viability (curve rank) [3, 7]: 0 | tox21-ar-mda-kb2-luc-agonist-p3-viability (curve rank) [4, 7]: 0 | tox21-ap1-agonist-p1-viability (curve rank) [5, 7]: 0 | tox21-car-agonist-p1-viability (curve rank) [6, 7]: 0

CC(C)(C)NCC(O)COc1cccc2c1CCC(=O)N2 (stereo not drawn) [Carteolol hydrochloride]
tox21-ar-mda-kb2-luc-antagonist-p2-viability (curve rank) [1]: 0 | tox21-car-antagonist-p1-viability (curve rank) [2]: 0 | tox21-are-bla-p1-viability (curve rank) [3]: 0 | tox21-ar-mda-kb2-luc-agonist-p3-viability (curve rank) [4]: 0 | tox21-ap1-agonist-p1-viability (curve rank) [5]: 0 | tox21-car-agonist-p1-viability (curve rank) [6]: 0

CCn1cc(C(=O)O)c(=O)c2cnc(N3CCNCC3)nc21 [Pipemidic acid]
tox21-ar-mda-kb2-luc-antagonist-p2-viability (curve rank) [1]: 0 | tox21-car-antagonist-p1-viability (curve rank) [2]: 0 | tox21-are-bla-p1-viability (curve rank) [3]: 0 | tox21-ar-mda-kb2-luc-agonist-p3-viability (curve rank) [4]: 0 | tox21-ap1-agonist-p1-viability (curve rank) [5]: 0 | tox21-car-agonist-p1-viability (curve rank) [6]: 0

Cc1scc2c1N(C(=O)CN1CCN(C)CC1)c1ccccc1NC2=O [Telenzepine]
tox21-ar-mda-kb2-luc-antagonist-p2-viability (curve rank) [1]: 0 | tox21-car-antagonist-p1-viability (curve rank) [2]: 0 | tox21-are-bla-p1-viability (curve rank) [3]: 0 | tox21-ar-mda-kb2-luc-agonist-p3-viability (curve rank) [4]: 0 | tox21-ap1-agonist-p1-viability (curve rank) [5]: 0 | tox21-car-agonist-p1-viability (curve rank) [6]: 0

Nc1nnc(-c2cccc(Cl)c2Cl)c(N)n1 [Lamotrigine]
tox21-ar-mda-kb2-luc-antagonist-p2-viability (curve rank) [1]: 0 | tox21-car-antagonist-p1-viability (curve rank) [2]: 0 | tox21-are-bla-p1-viability (curve rank) [3]: 0 | tox21-ar-mda-kb2-luc-agonist-p3-viability (curve rank) [4]: 0 | tox21-ap1-agonist-p1-viability (curve rank) [5]: 0 | tox21-car-agonist-p1-viability (curve rank) [6]: -0.67

NC(Cc1ccc(Cl)cc1)C(=O)O (stereo not drawn) [Fenclonine]
tox21-ar-mda-kb2-luc-antagonist-p2-viability (curve rank) [1]: 0 | tox21-car-antagonist-p1-viability (curve rank) [2]: 0 | tox21-are-bla-p1-viability (curve rank) [3]: 0 | tox21-ar-mda-kb2-luc-agonist-p3-viability (curve rank) [4]: 0 | tox21-ap1-agonist-p1-viability (curve rank) [5]: 0 | tox21-car-agonist-p1-viability (curve rank) [6]: 0

CC(C(=O)O)c1ccc(C(=O)c2ccccc2)s1 (stereo not drawn) [Tiaprofenic acid]
tox21-ar-mda-kb2-luc-antagonist-p2-viability (curve rank) [1]: 0 | tox21-car-antagonist-p1-viability (curve rank) [2]: 0 | tox21-are-bla-p1-viability (curve rank) [3]: 0 | tox21-ar-mda-kb2-luc-agonist-p3-viability (curve rank) [4]: 0 | tox21-ap1-agonist-p1-viability (curve rank) [5]: 0 | tox21-car-agonist-p1-viability (curve rank) [6]: 0

CCCC(=O)Nc1ccc(OCC(O)CNC(C)C)c(C(C)=O)c1 (stereo not drawn) [Acebutolol hydrochloride]
tox21-ar-mda-kb2-luc-antagonist-p2-viability (curve rank) [1]: 0 | tox21-car-antagonist-p1-viability (curve rank) [2]: 0 | tox21-are-bla-p1-viability (curve rank) [3]: 0 | tox21-ar-mda-kb2-luc-agonist-p3-viability (curve rank) [4]: 0 | tox21-ap1-agonist-p1-viability (curve rank) [5]: 0 | tox21-car-agonist-p1-viability (curve rank) [6]: 0

CCC1(C2=NCCN2)Cc2ccccc2O1 (stereo not drawn) [Efaroxan]
tox21-ar-mda-kb2-luc-antagonist-p2-viability (curve rank) [1, 7]: 0 | tox21-car-antagonist-p1-viability (curve rank) [2, 7]: 0 | tox21-are-bla-p1-viability (curve rank) [3, 7]: 0 | tox21-ar-mda-kb2-luc-agonist-p3-viability (curve rank) [4, 7]: 0 | tox21-ap1-agonist-p1-viability (curve rank) [5, 7]: 0 | tox21-car-agonist-p1-viability (curve rank) [6, 7]: 0

COc1ccc(-c2cc(=O)c3c(O)cc(O[C@@H]4O[C@H](CO[C@@H]5O[C@@H](C)[C@H](O)[C@@H](O)[C@H]5O)[C@@H](O)[C@H](O)[C@H]4O)cc3o2)cc1O [Diosmin]
tox21-ar-mda-kb2-luc-antagonist-p2-viability (curve rank) [1]: 0 | tox21-car-antagonist-p1-viability (curve rank) [2]: 0 | tox21-are-bla-p1-viability (curve rank) [3]: 0 | tox21-ar-mda-kb2-luc-agonist-p3-viability (curve rank) [4]: 0 | tox21-ap1-agonist-p1-viability (curve rank) [5]: 0 | tox21-car-agonist-p1-viability (curve rank) [6]: 0

Cc1cc(C)cc(OCC2CNC(=O)O2)c1 (stereo not drawn) [Metaxalone]
tox21-ar-mda-kb2-luc-antagonist-p2-viability (curve rank) [1]: 0 | tox21-car-antagonist-p1-viability (curve rank) [2]: 0 | tox21-are-bla-p1-viability (curve rank) [3]: 0 | tox21-ar-mda-kb2-luc-agonist-p3-viability (curve rank) [4]: 0 | tox21-ap1-agonist-p1-viability (curve rank) [5]: 0 | tox21-car-agonist-p1-viability (curve rank) [6]: 0

Brc1c(NC2=NCCN2)ccc2nccnc12 [Brimonidine]
tox21-ar-mda-kb2-luc-antagonist-p2-viability (curve rank) [1]: 0 | tox21-car-antagonist-p1-viability (curve rank) [2]: 0 | tox21-are-bla-p1-viability (curve rank) [3]: 0 | tox21-ar-mda-kb2-luc-agonist-p3-viability (curve rank) [4]: 0 | tox21-ap1-agonist-p1-viability (curve rank) [5]: 0 | tox21-car-agonist-p1-viability (curve rank) [6]: 0

O=C(NCCO[N+](=O)[O-])c1cccnc1 [Nicorandil]
tox21-ar-mda-kb2-luc-antagonist-p2-viability (curve rank) [1]: 0 | tox21-car-antagonist-p1-viability (curve rank) [2]: 0 | tox21-are-bla-p1-viability (curve rank) [3]: 0 | tox21-ar-mda-kb2-luc-agonist-p3-viability (curve rank) [4]: 0 | tox21-ap1-agonist-p1-viability (curve rank) [5]: 0 | tox21-car-agonist-p1-viability (curve rank) [6]: 0

O=C(O)COc1ccccc1 [Phenoxyacetic acid]
tox21-ar-mda-kb2-luc-antagonist-p2-viability (curve rank) [1, 7]: 0 | tox21-car-antagonist-p1-viability (curve rank) [2, 7]: 0 | tox21-are-bla-p1-viability (curve rank) [3, 7]: 0 | tox21-ar-mda-kb2-luc-agonist-p3-viability (curve rank) [4, 7]: 0 | tox21-ap1-agonist-p1-viability (curve rank) [5, 7]: 0 | tox21-car-agonist-p1-viability (curve rank) [6, 7]: 0
